Converted amounts (≈) assume the structure as drawn. Read-outs that look alike come from different tables or passages of the source.
Assays:
[1] = tested on: isolated liver mitochondria; assay: Mitochondrial oxygen consumption rate (OCR) assay; type: biochemical, Sprague-Dawley rats; details: isolated rat liver mitochondria, state 3 (S3) respiration
From the text: Male Sprague-Dawley rats (8-10 weeks of age) were euthanized with an overdose of carbon dioxide. The liver was rapidly excised and placed in ice-cold phosphate-buffered saline (PBS) before isolation process. Mitochondria were isolated using the MitoCheck® Mitochondrial Isolation Kit (Cayman Chemical #701010, Ann Arbor, Mich.) according to manufacturer's instructions. In brief, approximately 10-14 grams of liver tissues were finely minced using a pair of scissors, and washed repeatedly with ice-cold PBS, followed by Mito Isolation Buffer. The minced tissues were homogenized with 30 ml Mito Homogenization Buffer in 40 ml dounce homogenizer and a smooth glass grinder. The homogenate was split into two clean 30 ml polycarbonate tubes and centrifuged at 1,000×g, 4° C., for 3 minutes. The supernatant was subjected to further centrifugation at 10,000×g, 4° C., for 10 minutes. The supernatant was discarded and mitochondrial pellet was suspended in Mito Isolation Buffer using a glass stirring rod and stored on ice until use. Protein concentration of mitochondria was determined using a bicinchoninic acid protein assay kit (Thermo Scientific, Waltham, Mass.).
Oxygen consumption was monitored as essentially described by Will et al., “Analysis of mitochondrial function using phosphorescent oxygen-sensitive probes,” Nature Protocols Vol. 1(6) (2006) 2563. Briefly, isolated mitochondria (50 μg mitochondrial proteins/state 3 (S3) of mitochondrial respiration for inhibitor identification, 100 μg/S2 for uncoupler identification) were incubated with compounds in 25 μl of Measurement Buffer (MB: 250 mM sucrose, 15 mM KCl, 1 mM EGTA, 5 mM MgCl2, 30 mM K2HPO4, pH 7.4) including 1% DMSO on ice for 1 hour, then mixed with 25 μl of substrate mixture including an oxygen-sensitive phosphorescent dye (MitoXpress Xtra, Agilent, Santa Clara, Calif.), glutamate (25 mM, G1626, Sigma, St. Louis, Mo.), malate (25 mM, M6413, Sigma), ADP (3.3 mM, A2754, Sigma, only for S3 of mitochondrial respiration), Fatty acid free BSA (0.1%, A0281, Sigma), and a complex II-specific inhibitor TTFA (2 μM, T27006, Sigma for the assessment of complex I-mitochondrial respiration with glutamate/malate) in a black wall/clear bottom 384-well plate. The mixtures were covered with HS mineral oil (Agilent) using the Viaflo 384-channel pipette (Integra, Hudson, N.H.). Oxygen consumption was measured for 30 min at 30° C. using a spectrofluorimeter (FLUOstar Omega, BMG Labtech, Cary, N.C.). In S3, DMSO vehicle control and antimycin A (10 μM) were used to define 0% and 100% inhibition. In S2, DMSO vehicle and FCCP (0.5-1 μM) was used to define 0% and 100% uncoupling, respectively. Area under curve typically in a range of 0-12 min (S3) or 0-24 min (S2) was used for calculations. IC50 or UC50 (uncoupling concentration), a concentration that causes 50% of inhibition or maximal (uncoupling) activation of oxygen consumption, was used to evaluate experimental quality. Data were presented as μM (per 50 μg (S3) or 100 μg (S2) mitochondrial proteins). Compounds with IC50: <100 μM (S3) and/or UC50: <200 μM (S2) were considered as high-risk on mitochondrial toxicity. Compounds with 25-50% changes in inhibition and/or uncoupling were categorized as medium-risk, since compounds with >25% changes are considered as responders.
Toxicity associated with mitochondrial dysfunction has presented a problem for promising potential antibiotics as we as other types of therapeutics. The mitochondrial oxygen consumption rate (OCR) assay is considered a reliable indicator of potential internal organ toxicity issues that may occur with powerful antibiotics. The carboxylate compounds of the invention show unexpected lower toxicity than prior art “glycine nitrile” arylomycin analogs (see, e.g., WO 2018/149419) in the mitochondrial oxygen consumption rate (OCR) assay.

[2] = tested on: Acinetobacter baumannii ATCC 17978; assay: Serum MIC, broth micro-dilution; type: cell-based; details: Acinetobacter baumannii, ATCC17978
In short: (§1)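 CLSI broth microdilution in 50% cation-adjusted Mueller Hinton II broth plus 50% mouse serum. Inoculum at final OD600 0.0005. Two-fold serial dilutions (10 concentrations) starting at 64, 4, 0.5 or 0.13 μg/mL. Incubated 22 h at 35 °C.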

[3] = tested on: Escherichia coli strain ATCC 25922; assay: Serum MIC, broth micro-dilution; type: cell-based; details: Escherichia coli, ATCC25922, read-out: E. coli 25922 Serum MIC
In short: as §1

[4] = tested on: Klebsiella pneumoniae ATCC 700603; assay: Serum MIC, broth micro-dilution; type: cell-based; details: Klebsiella pneumoniae, ATCC700603
In short: as §1

[5] = tested on: Pseudomonas aeruginosa PA01; assay: Serum MIC, broth micro-dilution; type: cell-based; details: Pseudomonas aeruginosa, PA01, read-out: P. aeruginosa 01 Serum MIC
In short: as §1

[6] = 50% v/v mouse serum in Mueller Hinton II cation adjusted Broth, 35° C., 22 hours, Table 4, read-out: A. baumanii 17978 Serum MIC
[7] = 50% v/v mouse serum in Mueller Hinton II cation adjusted Broth, 35° C., 22 hours, Table 5, read-out: Acinetobacter baumanii 17978 Serum MIC
[8] = 50% v/v mouse serum in Mueller Hinton II cation adjusted Broth, 35° C., 22 hours, Table 4
[9] = 50% v/v mouse serum in Mueller Hinton II cation adjusted Broth, 35° C., 22 hours, Table 4, read-out: K pneumoniae 700603 Serum MIC
[10] = 50% v/v mouse serum, compounds of Table 1, Table 7

SMILES | IC50 ([1]; glutamate/malate, Table 3) | MIC [2, 6] | MIC [2, 7] | MIC [3, 8] | MIC [4, 9] | MIC [5, 8] | IC50 ([1]; compounds of Table 1, Table 6) | MIC ([2]; 50% v/v mouse serum, compounds of Table 1, Table 7, read-out: A. baumanii 17978 Serum MIC) | MIC [3, 10] | MIC ([4]; 50% v/v mouse serum, compounds of Table 1, Table 7, read-out: K. pneumoniae 700603 Serum MIC) | MIC [5, 10]
C[C@@H]1NC(=O)[C@@H](N(C)C(=O)[C@H](CNS(N)(=O)=O)NC(=O)c2c(N)nc(-c3ccc(C(C)(C)C)cc3)nc2C(F)F)c2cc(OC[C@H](O)CN)c(O)c(c2)-c2cc(ccc2OC[C@H](O)CN)C[C@@H](C(=O)O)NC1=O [Example 69, (8S,11S,14S)-14-[[(2S)-2-[[4-amino-2-(4-tert-butylphenyl)-6-(difluoromethyl)-pyrimidine-5-carbonyl]amino]-3-(sulfamoylamino)-propanoyl]-methyl-amino]-3,17-bis[(2R)-3-amino-2-hydroxy-propoxy]-18-hydroxy-11-methyl-10,13-dioxo-9,12-diazatri-cyclo[13.3.1.12,6]icosa-1(18),2(20),3,5,15(19), 16-hexaene-8-carboxylic acid] | 44 µM | 4 µM (≈ 4.18 µg/mL) | 4 µM (≈ 4.18 µg/mL) | 0.25 µM (≈ 0.261 µg/mL) | 0.38 µM (≈ 0.397 µg/mL) | 6 µM (≈ 6.26 µg/mL) |  |  |  |  | 
Cc1nc(-c2ccc(C(C)(C)C)cc2O)nc(N)c1C(=O)N[C@@H](CCN)C(=O)N(C)[C@@H]1C(=O)N[C@@H](C)C(=O)N[C@H](C(=O)O)Cc2ccc(OC[C@H](O)CN)c(c2)-c2cc1cc(OC[C@H](O)CN)c2O [Example 43, (8S,11S,14S)-14-[[(2S)-4-amino-2-[[4-amino-2-(4-tert-butyl-2-hydroxy-phenyl)-6-methyl-pyrimidine-5-carbonyl]amino]-butanoyl]-methyl-amino]-3,17-bis[(2R)-3-amino-2-hydroxy-propoxy]-18-hydroxy-11-methyl-10,13-dioxo-9,12-diazatricyclo-[13.3.1.12,6]icosa-1(19),2(20),3,5,15,17-hexaene-8-carboxylic acid] | > 100 µM | 8 µM (≈ 7.67 µg/mL) | 8 µM (≈ 7.67 µg/mL) | 0.25 µM (≈ 0.24 µg/mL) | 0.25 µM (≈ 0.24 µg/mL) | 8 µM (≈ 7.67 µg/mL) |  |  |  |  | 
Cc1nc(-c2ccc(OCCC(C)(C)C)cc2)ncc1C(=O)N[C@@H](CCN)C(=O)N(C)[C@@H]1C(=O)N[C@@H](C)C(=O)N[C@H](C(=O)O)Cc2ccc(OC[C@H](O)CN)c(c2)-c2cc1cc(OC[C@H](O)CN)c2O [Example 27, (8S,11S,14S)-18-hydroxy-11-methyl-14-[methyl-[(2S)-4-amino-2-[[2-[4-(3,3-dimethylbutoxy)-phenyl]-4-methyl-pyrimidine-5-carbonyl]amino]-butanoyl]amino]-10,13-dioxo-3,17-bis[(2R)-3-amino-2-hydroxy-propoxy]-9,12-diazatricyclo-[13.3.1.12,6]icosa-1(18),2(20),3,5,15(19), 16-hexaene-8-carboxylic acid] | 20 µM | 12 µM (≈ 11.7 µg/mL) | 12 µM (≈ 11.7 µg/mL) | 0.25 µM (≈ 0.243 µg/mL) | 0.25 µM (≈ 0.243 µg/mL) | 8 µM (≈ 7.78 µg/mL) |  |  |  |  | 

Now from value to compound:

IC50 ([1]; glutamate/malate, Table 3) | MIC [2, 6] | MIC [2, 7] | MIC [3, 8] | MIC [4, 9] | MIC [5, 8] | IC50 ([1]; compounds of Table 1, Table 6) | MIC ([2]; 50% v/v mouse serum, compounds of Table 1, Table 7, read-out: A. baumanii 17978 Serum MIC) | MIC [3, 10] | MIC ([4]; 50% v/v mouse serum, compounds of Table 1, Table 7, read-out: K. pneumoniae 700603 Serum MIC) | MIC [5, 10] | SMILES
> 200 µM | 14 µM (≈ 14.3 µg/mL) | 14 µM (≈ 14.3 µg/mL) | 0.5 µM (≈ 0.511 µg/mL) | 0.31 µM (≈ 0.317 µg/mL) | 8 µM (≈ 8.18 µg/mL) |  |  |  |  |  | Cc1nc(-c2ccc(C(C)(C)C)cc2)nc(CN)c1C(=O)N[C@@H](CNS(N)(=O)=O)C(=O)N(C)[C@@H]1C(=O)N[C@@H](C)C(=O)N[C@H](C(=O)O)Cc2ccc(OC[C@H](O)CN)c(c2)-c2cc1cc(OC[C@H](O)CN)c2O [Example 72, (8S,11S,14S)-3,17-bis[(2R)-3-amino-2-hydroxy-propoxy]-14-[[(2S)-2-[[4-(amino-methyl)-2-(4-tert-butylphenyl)-6-methyl-pyrimidine-5-carbonyl]amino]-3-(sulfamoylamino)-propanoyl]-methyl-amino]-18-hydroxy-11-methyl-10,13-dioxo-9,12-diazatri-cyclo[13.3.1.12,6]icosa-1(18),2(20),3,5,15(19), 16-hexaene-8-carboxylic acid]
 |  |  |  |  |  | 20 µM | 9.3 µM (≈ 8.01 µg/mL) | 0.19 µM (≈ 0.164 µg/mL) | 0.73 µM (≈ 0.629 µg/mL) | 13 µM (≈ 11.2 µg/mL) | Cc1nc(-c2ccc(C(C)(C)C)cc2)nc(C)c1C(=O)N[C@@H](CCN)C(=O)N(C)[C@@H]1C(=O)N[C@@H](C)C(=O)N[C@H](C(=O)NCC#N)Cc2ccc(O)c(c2)-c2cc1ccc2OCCN (racemic) [Example 254]

From patent US11208387B2, “Macrocyclic broad spectrum antibiotics” (Genentech, Inc., priority 2019, dated 2021)
